The assay addresses S. cerevisiae eIF2B mutant, luciferase reporter luminescence. Description: eIF2B reporter inhibitors in yeast strains, dose response, S. cerevisiae, mutant, wild-type, luminescence, growth (AID 792).
[1] abbreviates: measured here: mutant yeast growth.
[2] abbreviates: S. cerevisiae wild-type, luminescence.

In PubChem BioAssay AID792 (PCMD, 2007) one finds IC50 data, which are given here for 66 molecules.

Broadly, the IC50 is the concentration that inhibits the measured activity by half.

Molecules are shown by their SMILES. Records with an inconclusive call do not appear. Activity calls are given as the source filed them. No rule for the calls is given here.

As to `Cc1cc2c(c(=O)n1CC1CCCO1)C(c1ccco1)C(C#N)=C(N)O2` (stereo not given), the IC50 is > 100 µM (inactive). The molecule further showed an IC50 under setting [1] of over 100 µM.
Take `Nn1c(CSc2nc3ccccc3o2)nnc1CSc1nc2ccccc2o1`: the IC50 was > 100 µM (inactive). For the same molecule, the IC50 under setting [1] was over 100 µM.
For `CCCCNS(=O)(=O)c1cccc(S(=O)(=O)N2CCCC2)c1`, in that order: > 100 µM (inactive) and over 100 µM.
For `CS(=O)(=O)c1ccc2nc(NC(=O)C3C4C=CC(C4)C3C(=O)O)sc2c1` (stereo not given) the same measures were > 100 µM (inactive) and over 100 µM.
For `CCOC(=O)c1[nH]c2ccc(OC)cc2c1NC(=O)C(C)N1CCSCC1` (stereo not given), in that order: > 100 µM (inactive) and over 100 µM.
With `CCCCCn1c(SCC(=O)OCC)nc2cc(C(=O)NCc3ccco3)ccc2c1=O`, the IC50 is > 100 µM (inactive). Also, under setting [1], the IC50 was over 100 µM.
For `C=CCc1c(C)nc(C)nc1N/N=C/c1ccccc1O` the same measures were > 100 µM (inactive) and over 100 µM.
With `COc1ccc(Cl)cc1-n1c(N)c(C(N)=O)sc1=S`, the IC50 was > 100 µM (inactive). The molecule further registered an IC50 under setting [1] of over 100 µM.
For `O=C(Nc1cccnc1)c1cc(-c2ccco2)on1`, in that order: > 100 µM (inactive) and over 100 µM.
For `O=C(CC(Nc1ccccc1)C(=O)O)c1ccccc1` (stereo not given) the same measures were > 100 µM (inactive) and over 100 µM.
For `Cn1ncc(C#N)c1/N=C/N1CCOCC1` the same measures were > 100 µM (inactive) and over 100 µM.
With `C=CCNc1nc(-c2cccc(OC)c2O)nc2ccccc12`, the IC50 is > 100 µM (inactive). This molecule displayed an IC50 under setting [1] of over 100 µM.
For `Cc1cccc2nc(CSc3nnc4ccccn34)cn12`, in that order: > 100 µM (inactive) and over 100 µM.
For `CCCCCn1c(NC(=O)c2ccco2)c(S(=O)(=O)c2ccc(C)cc2)c2nc3ccccc3nc21`, in that order: > 100 µM (inactive) and over 100 µM.
Regarding `Cc1ccc(S(=O)(=O)n2nc(OC(=O)c3ccco3)cc2N)cc1`, the IC50 is > 100 µM (inactive). For the same molecule, the IC50 under setting [1] is over 100 µM.
For `NC(=O)CSC1=Nc2ccccc2C2=NC(CC(=O)NCc3cccs3)C(=O)N12` (stereo not given), the IC50 is > 100 µM (inactive). The half-maximal inhibitory concentration (IC50) under setting [1] is over 100 µM.
For `Cc1ccc2nc(/C(C#N)=C\c3ccc(N4CCOCC4)o3)[nH]c2c1` the same measures were > 100 µM (inactive) and over 100 µM.
For `C=CCSc1nnc2c(n1)OC(c1cccnc1)N(C(C)=O)c1ccccc1-2` (stereo not given) the same measures were > 100 µM (inactive) and over 100 µM.
In the case of `CCn1c(CNc2nc3ccccc3n2C(C)C)nc2ccccc21`, the IC50 is > 100 µM (inactive). This molecule also registered an IC50 under setting [1] of over 100 µM.
Regarding `Cc1ccc(C(=O)Nc2ncc(C)s2)o1`, the IC50 entry is “inactive”. This molecule also came in with an IC50 under setting [2] of 17.6 µM. Further, under setting [1], the IC50 was over 100 µM.
For `Cc1ccc(CN(CC2CCCO2)C(=O)CN2C(=O)C(C(C)C)Oc3ccccc32)o1` (stereo not given), in that order: “inactive”, over 100 µM and 14.2 µM.
For the molecule `CC1(C)CC(=O)c2cc(OCC(=O)NCCCN3CCN(c4ccccc4F)CC3)ccc2O1`, the IC50 was > 100 µM (inactive). For the same molecule, the 50% inhibitory concentration (IC50) under setting [1] was over 100 µM.
For `COc1cc(C)nc(N2CCCC(C(=O)Nc3cccc(Cl)c3C)C2)n1` (stereo not given) the same measures were > 100 µM (inactive) and over 100 µM.
For `CCC(=O)N1CCc2cc(S(=O)(=O)NC(C(=O)NCc3ccccc3)C(C)C)ccc21` (stereo not given), in that order: > 100 µM (inactive) and over 100 µM.
For `C=CCc1c(C)nc(SC(C)C)[nH]c1=O` the same measures were > 100 µM (inactive) and over 100 µM.
With `CCOc1cc(-c2nc(-c3ccc(C)nc3OCC)no2)cc(OCC)c1OCC`, the IC50 was > 100 µM (inactive). This molecule also displayed an IC50 under setting [1] of over 100 µM.
For `Cc1cnc(NC(=O)CN(C)S(=O)(=O)c2ccc(Cl)cc2)s1` the same measures were > 100 µM (inactive) and over 100 µM.
In the case of `COc1ccc(NC(=O)N2CCc3ccccc32)cc1`, the IC50 result is “inactive”. The molecule also came in with an IC50 under setting [2] of 6.14 µM. Besides, the concentration for half-maximal inhibition (IC50) under setting [1] was over 100 µM.
Turning to `Cc1nc(N2CCN(C(=O)c3ccco3)CC2)c2c3c(sc2n1)CCCC3`, the IC50 was > 100 µM (inactive). In addition, under setting [1], the IC50 was over 100 µM.
For the molecule `Nn1cnnc1SC1CCCCC1NS(=O)(=O)c1ccccc1` (stereo not given), the IC50 was > 100 µM (inactive). The IC50 under setting [1] is over 100 µM.
For `Cc1cccc(N2C(=O)c3cccnc3C2=O)c1`, in that order: > 100 µM (inactive) and over 100 µM.
Turning to `CCC(=O)N(Cc1cc(=O)[nH]c2ccccc12)c1cccc(C)c1`, the IC50 is > 100 µM (inactive). The same molecule showed an IC50 under setting [1] of over 100 µM.
For `COc1ccc(OC)c(N(CC(=O)Nc2ccc(NC(C)=O)cc2)S(C)(=O)=O)c1` the same measures were > 100 µM (inactive) and over 100 µM.
For `C=CCn1c(N)cc(=O)nc1SCC(=O)Nc1ccccc1` the same measures were > 100 µM (inactive) and over 100 µM.
For `CC(=C1C(=O)c2ccccc2C1=O)N1CCN(CCN=Cc2c(O)n(C)c(=O)n(C)c2=O)CC1`, in that order: > 100 µM (inactive) and over 100 µM.
`Cc1cc2c(cc1C)CSC(c1ccc(O)cc1)SC2`: the IC50 is > 100 µM (inactive). Further, under setting [1], the IC50 is over 100 µM.
For `Oc1cc(Cc2ccccc2)cnc1CN1CCCCC1`, in that order: > 100 µM (inactive) and over 100 µM.
For `N#CCN1CCN(CC(=O)Nc2ccc(OCc3ccccc3)cc2)CC1`, in that order: > 100 µM (inactive) and over 100 µM.
For `COc1ccc(C2C=C(c3ccccc3)Nc3nnnn32)cc1` (stereo not given) the same measures were > 100 µM (inactive) and over 100 µM.
Consider `COc1ccc(C2SCC(=O)Nc3c2c(C)nn3C2CCOC(C)(C)C2)cc1` (stereo not given), for which the IC50 was > 100 µM (inactive). Further, the IC50 under setting [1] was over 100 µM.
For `CCCC1CC(C)(c2csc(Nc3ccc(OCC)cc3)n2)OC1=O` (stereo not given) the same measures were > 100 µM (inactive) and over 100 µM.
Consider `CCCC(=O)Nc1sc(C(=O)OC)c(C)c1C(N)=O`, for which the IC50 was > 100 µM (inactive). The molecule also returned an IC50 under setting [1] of over 100 µM.
Take `CCOC(=O)N1CCN(C(=O)c2ccc(N3CCCC3=O)cc2)CC1`: the IC50 was > 100 µM (inactive). Under setting [1], the IC50 was over 100 µM.
For `CCOC(=O)c1c(-c2ccco2)csc1NC(=O)CSc1nnc(N)s1` the same measures were > 100 µM (inactive) and over 100 µM.
In the case of `O=C(NCc1ccc(F)cc1)c1c(O)c2cccc3c2n(c1=O)CCC3`, the IC50 is > 100 µM (inactive). Under setting [1], the half-maximal inhibitory concentration (IC50) is over 100 µM.
`N#Cc1c(/N=C/c2cc(Br)cs2)sc2c1CCC2`: the IC50 is > 100 µM (inactive). The molecule further displayed an IC50 under setting [1] of over 100 µM.
For `COc1ccccc1CNC(=O)CN(c1ccc(C)cc1)S(=O)(=O)c1c(C)nn(C)c1C` the same measures were > 100 µM (inactive) and over 100 µM.
For `COC(=O)c1cc2occc2n1CC(=O)Nc1ccc(OC)c(OC)c1`, in that order: > 100 µM (inactive) and over 100 µM.
Turning to `Cc1cc(=O)oc2ccc(OCC(=O)N3CCc4ccccc43)cc12`, the IC50 is > 100 µM (inactive). This molecule yielded an IC50 under setting [1] of over 100 µM.
For `CCC(=O)Nc1c2c(nn1-c1ccc(C)cc1C)CSC2` the same measures were > 100 µM (inactive) and over 100 µM.
For `CCOC(=O)C1(C)/C(=N/Nc2ccccc2)C(=O)C(=O)N1c1ccccc1` (stereo not given), in that order: > 100 µM (inactive) and over 100 µM.
As for `O=c1/c(=C/c2ccc(CNS(=O)(=O)c3ccccc3)o2)sc2n1CCN=2`, the IC50 is > 100 µM (inactive). For the same molecule, the IC50 under setting [1] is over 100 µM.
For `O=C(N1CCOCC1)N1c2ccccc2CC(N2CCOCC2)c2ccccc21` (stereo not given) the same measures were > 100 µM (inactive) and over 100 µM.
For `COc1ccc2c(c1)CCc1c(C(=O)N3CC4(C)CC3CC(C)(C)C4)noc1-2` (stereo not given) the same measures were > 100 µM (inactive) and over 100 µM.
`C=CCn1c(SC2CCOC2=O)nc2sc(CC)cc2c1=O` (stereo not given): the IC50 is > 100 µM (inactive). Under setting [1], this molecule gave an IC50 of over 100 µM.
In the case of `CCOc1ccccc1N1CC(C(=O)N2CCc3ccccc32)CC1=O` (stereo not given), the IC50 was > 100 µM (inactive). The IC50 under setting [1] is over 100 µM.
As to `CCOC(=O)c1c(NC(=O)COC)sc2c1CCCC2`, the IC50 is > 100 µM (inactive). The same molecule came in with an IC50 under setting [1] of over 100 µM.
For `Cc1nnc(NC2CCCCC2)[nH]c1=O`, in that order: > 100 µM (inactive) and over 100 µM.
For `Cc1ccc(-c2nnc3ccc(SCC(=O)NCc4ccco4)nn23)cc1` the same measures were > 100 µM (inactive) and over 100 µM.
With `COc1ccc(Cl)cc1C(=O)N1CCN(c2ccccn2)CC1`, the IC50 was > 100 µM (inactive). Moreover, the half-inhibitory concentration (IC50) under setting [1] is over 100 µM.
For `CN1CCc2nc(SCCOc3ccccc3)c(C#N)cc2C1` the same measures were > 100 µM (inactive) and over 100 µM.
For `CCOc1ccc(C2NC(=O)NC(C)=C2C(=O)OC)cc1C` (stereo not given), the IC50 result was “inactive”. For the same molecule, the IC50 under setting [1] is 33.3 µM.
For `c1ccc2c(c1)CNc1ccccc1O2`, in that order: > 100 µM (inactive) and over 100 µM.
In the case of `COc1cc2cc(C(c3nnnn3C3CCCCC3)N(C)C3CCCCC3)c(=O)[nH]c2cc1OC` (stereo not given), the IC50 was > 100 µM (inactive). The molecule further gave an IC50 under setting [1] of over 100 µM.
Take `CCn1ncc(Br)c1C(=O)Nc1sc2c(c1C(N)=O)CCC2`: the IC50 is > 100 µM (inactive). The same molecule came in with an IC50 under setting [1] of over 100 µM.
For `CCOC(=O)C1CCCN(C(=O)C(C)Oc2ccc(Cl)cc2Cl)C1` (stereo not given) the same measures were > 100 µM (inactive) and over 100 µM.
